In patent US9700058B2, “Dispersion and detachment of cell aggregates” (priority 2011, dated 2017):

Columns and labels:
Assay type in all cases: cell-based
[1] = system: Pseudomonas aeruginosa; assay: Enhancement of Kanamycin activity, BacTiter-Glo viability; details: peptide 100 ng/ml with Kanamycin vs Kanamycin alone, 24 hours
Description: (§1) The ability of grZ14s-nvCyc to enhance the activity of Kanamycin was performed by first incubating the wells in a 96-well plate with Pseudomonas aeruginosa for 24 hours at 37° C. and 50 rpm shaking. The plate was washed 2 times with phosphate buffer solution. The wells were then filled with either Kanamycin alone or Kanamycin with grZ14s-nvCyc (100 ng/ml). The wells were then incubated for 24 hours at 37° C. and 50 rpm shaking. The plates were again washed 2 times with PBS. BacTiter-Glo Microbial Cell Viability Assay (Promega, USA) was used following the manufacturer protocol and luminescence read.

[2] = system: Candida albicans; assay: Enhancement of antifungal activity, BacTiter-Glo viability; details: 24 hours
Description: as §1, with “of Amphotericin” for “of Kanamycin”, “with Candida albicans” for “with Pseudomonas aeruginosa”, “either the antifungal” for “either Kanamycin”, “or the antifungal” for “or Kanamycin”
as §1, with “of Fluconazole” for “of Kanamycin”, “with Candida albicans” for “with Pseudomonas aeruginosa”, “either the antifungal” for “either Kanamycin”, “or the antifungal” for “or Kanamycin”

[3] = system: Pseudomonas aeruginosa; assay: Enhancement of antibiotic activity on 24-h biofilm, live bacteria by plating
Description: (§2) The ability of grZ14s-nvCyc to enhance the activity of Imipenem or Ampicillin was performed by first incubating the wells in a 96-well plate with Pseudomonas aeruginosa for 24 hours at 37° C. and 50 rpm shaking. The plate was washed 2 times with phosphate buffer solution. The wells were then filled with either the antibiotic alone or the antibiotic with grZ14s-nvCyc (100 ng/ml). The wells were then incubated for 48 hours (24 hours for Ampicillin) at 37° C. and 50 rpm shaking. 0.3% triton X-100 and 0.45% EDTA were then added to the wells, bringing the wells to a final concentration of 0.075% triton X-100 and 0.1125% EDTA. The plates were then sonicated in a bath-sonicator for 12 minutes. The wells were then serially diluted in PBS. The solutions were then seeded on a blood plate agar and incubated at 37° C. for 24 hours.

[4] = system: Pseudomonas aeruginosa (ATCC 27853); assay: Detachment of pre-formed biofilm from a well (Examples 1-7); details: 24-hour peptide incubation, different concentrations, crystal violet OD 595 nm
Description: A biofilm was created by incubating Pseudomonas aeruginosa (ATCC 27853) overnight in wells at 37° C., allowing the microorganism to attach to the well surface. Eqt2Z-cyc peptide [Custom Peptide Synthesis; Peptron, Korea] at different concentrations was subsequently added to the wells and allowed to incubate overnight. The P.a. control was Pseudomonas aeruginosa alone.
(§3) A biofilm was created by culturing Pseudomonas aeruginosa (ATCC 27853) for 2 hours in a well at 37° C. Eqt2Z-cyc peptide at different concentrations was subsequently added to the well and allowed to incubate overnight. The Abac10-cyc peptide served as a negative control. The P.a. control was Pseudomonas aeruginosa alone.
as §3, with “for 24 hours.” for “overnight.”, “alone. […] Staining was performed with crystal violet at OD 595 nm.” for “alone.”
A biofilm was created by culturing Pseudomonas aeruginosa (ATCC 27853) for 2 hours in a well at 37° C. grZ14s-nvCyc peptide [Custom Peptide Synthesis; Peptron, Korea] at different concentrations was subsequently added to the well and allowed to incubate for 24 hours. The Abac10-cyc peptide served as a negative control. The P.a. control was Pseudomonas aeruginosa alone. […] Staining was performed with crystal violet at OD 595 nm.
(§4) A biofilm was created by culturing Pseudomonas aeruginosa (ATCC 27853) for 24 hours in a well at 37° C. Eqt2Z-cyc peptide at different concentrations was subsequently added to the well and allowed to incubate for 24 hours. The Abac10-cyc peptide served as a negative control. The P.a. control was Pseudomonas aeruginosa alone. […] Staining was performed with crystal violet at OD 595 nm.
as §4, with “grZ14s-nvCyc” for “Eqt2Z-cyc”
A biofilm was created by culturing Pseudomonas aeruginosa (ATCC 27853) for 24 hours in a well at 37° C. PhyscoZ-Cyc peptide [Custom Peptide Synthesis; Peptron, Korea] at different concentrations was subsequently added to the well and allowed to incubate for 24 hours. The P.a. control was Pseudomonas aeruginosa alone. […] Staining was performed with crystal violet at OD 595 nm.

[5] = system: Staphylococcus aureus; assay: Enhancement of Vancomycin activity on 24-h biofilm, live bacteria by plating; details: peptide 100 ng/ml with Vancomycin vs Vancomycin alone
Description: as §2, with “Vancomycin” for “Imipenem or Ampicillin”, “Staphylococcus aureus” for “Pseudomonas aeruginosa”, “24” for “48”, “hours” for “hours (24 hours for Ampicillin)”

With CSVHSFDYDWYNVC [grZ14s-nvCyc] the “number of live bacteria” value [1] was “much lower”, the “number of live fungus” value ([2]; peptide 100 ng/ml with Amphotericin vs Amphotericin alone) was “much lower” and the “number of live fungus” value ([2]; peptide 100 ng/ml with Fluconazole vs Fluconazole alone) was “much lower”. The “number of live bacteria” value ([3]; peptide 100 ng/ml with Ampicillin vs Ampicillin alone, 24 hours) was “much lower”, the “number of live bacteria” value ([3]; peptide 100 ng/ml with Imipenem vs Imipenem alone, 48 hours) was “much lower” and the microorganism detachment ([4]; 2-hour biofilm) was “far greater microorganism detachment than in the P.a. control or negative control”. For the same sequence, the microorganism detachment ([4]; 24-hour biofilm) was “far greater microorganism detachment than in the P.a. control or negative control” and the “number of live bacteria” value [5] was “much lower”.
